Active and inactive are the calls of the source. No cut-off for these calls is given here.
Tests used:
Assay type in all cases: functional, organism-based
Priestia megaterium = test: Antimicrobial activity against Bacillus megaterium at 50 ug/disk by disk diffusion assay
Escherichia coli [1] = test: Antimicrobial activity against Escherichia coli at 50 ug/disk by disk diffusion assay
Aspergillus ruber = test: Antimicrobial activity against Eurotium rubrum at 50 ug/disk by disk diffusion assay
Microbotryum violaceum = test: Antimicrobial activity against Microbotryum violaceum at 50 ug/disk by disk diffusion assay
Mycotypha microspora = test: Antimicrobial activity against Mycotypha microspora at 50 ug/disk by disk diffusion assay
[Chlorella] fusca = Antimicrobial activity against Chlorella fusca at 50 ug/disk by disk diffusion assay; details: Scenedesmus fuscus
Plasmodium falciparum = test: Antiplasmodial activity against Plasmodium falciparum
Escherichia coli [2] = test: Quorum sensing activity in Escherichia coli MT102 harbouring pSB403 assessed as activation of acyl-homoserinlactone-related signaling at 0 to 1000 nM after 4 hrs by fluorescence assay
Pseudomonas putida [3] = test: Quorum sensing activity in Pseudomonas putida F117 pKR-C12 assessed as activation of acyl-homoserinlactone-related signaling at 10 ul after 24 hrs by thin-layer chromatography
Pseudomonas putida [4] = test: Quorum sensing activity in Pseudomonas putida F117 pAS-C8 assessed as activation of acyl-homoserinlactone-related signaling at 0 to 1000 nM after 4 hrs by fluorescence assay
[5] = system: Chromobacterium violaceum; test: Quorum sensing activity in Chromobacterium violaceum assessed as activation of acyl-homoserinlactone-related signaling at 0 to 1000 nM after 4 hrs by fluorescence assay
Escherichia coli [6] = test: Inhibition of acyl-homoserinlactone-related quorum sensing activity in Escherichia coli MT102 harbouring pSB403 at 0 to 1000 nM after 4 hrs by fluorescence assay
Pseudomonas putida [7] = test: Inhibition of acyl-homoserinlactone-related quorum sensing activity in Pseudomonas putida F117 pKR-C12 at 10 ul after 24 hrs by thin-layer chromatography
Pseudomonas putida [8] = test: Inhibition of acyl-homoserinlactone-related quorum sensing activity in Pseudomonas putida F117 pAS-C8 at 0 to 1000 nM after 4 hrs by fluorescence assay
[9] = system: Chromobacterium violaceum; test: Inhibition of acyl-homoserinlactone-related quorum sensing activity in Chromobacterium violaceum at 0 to 1000 nM after 4 hrs by fluorescence assay
[10] = system: Myxococcus xanthus DK 1622; test: Inhibition of Myxococcus xanthus DK 1622 growth at 0.5 mg after 72 hrs by agar diffusion assay

| SMILES | Activity (Priestia megaterium) | Activity (Escherichia coli [1]) | Activity (Aspergillus ruber) | Activity (Microbotryum violaceum) | Activity (Mycotypha microspora) | Activity ([Chlorella] fusca) | IC50 (Plasmodium falciparum) [µM] | Activity (Escherichia coli [2]) | Activity (Pseudomonas putida [3]) | Activity (Pseudomonas putida [4]) | Activity [5] | Activity (Escherichia coli [6]) | Activity (Pseudomonas putida [7]) | Activity (Pseudomonas putida [8]) | Activity [9] | Activity [10] |
| --- | --- | --- | --- | --- | --- | --- | --- | --- | --- | --- | --- | --- | --- | --- | --- | --- |
| CC(C)CCCCCCCCCCC/C=C\C(=O)N/C=C\c1ccc(O[C@@H]2O[C@@H](C)[C@H](O)[C@@H](O)[C@H]2O)cc1 [MYXOTYROSIDE A] | inactive | inactive | inactive | inactive | inactive | inactive | 7 | inactive | inactive | inactive | inactive | Active | Active | Active | Active | inactive |
| CCCCCCCCCCCCC/C=C\C(=O)N/C=C\c1ccc(O[C@@H]2O[C@@H](C)[C@H](O)[C@@H](O)[C@H]2O)cc1 |  |  |  |  |  |  |  | inactive | inactive | inactive | inactive | Active | Active | Active | Active | inactive |

From ChEMBL document CHEMBL1151807, “Myxotyrosides A and B, Unusual rhamnosides from Myxococcus sp” (J Nat Prod, 2009)
